From ChEMBL document CHEMBL3044674, “Design and synthesis of positional isomers of 1-alkyl-2-trifluoromethyl-5 or 6-substituted benzimidazoles and their antimicrobial activity” (2013)
≈ marks a conversion by molar mass, not a printed value.

How the values were obtained:
Format in all cases: functional
Bacillus subtilis = experiment: Antibacterial activity against Bacillus subtilis NCIM 2921 after 18 to 20 hr by plate method
Pseudomonas aeruginosa = experiment: Antibacterial activity against Pseudomonas aeruginosa NCIM 2957 after 18 to 20 hr by plate method
Candida albicans = experiment: Antifungal activity against Candida albicans MTCC 227 after 24 hr by paper disk method; conditions: MTCC 227, 24 h
Escherichia coli = experiment: Antibacterial activity against Escherichia coli NCIM 2068 after 18 to 20 hr by plate method
Saccharomyces cerevisiae = experiment: Antifungal activity against Saccharomyces cerevisiae MTCC 36 after 24 hr by paper disk method; conditions: MTCC 36, 24 h
Rhizopus arrhizus = experiment: Antifungal activity against Rhizopus oryzae MTCC 262 after 24 hr by paper disk method; conditions: MTCC 262, 24 h
Aspergillus niger = experiment: Antifungal activity against Aspergillus niger MTCC 1344 after 24 hr by paper disk method; conditions: MTCC 1344, 24 h
Staphylococcus aureus = experiment: Antibacterial activity against Staphylococcus aureus NCIM 2079 after 18 to 20 hr by plate method

| SMILES | Activity (Bacillus subtilis) | MIC (Bacillus subtilis) | Activity (Pseudomonas aeruginosa) | MIC (Pseudomonas aeruginosa) | MIC (Candida albicans) | Activity (Escherichia coli) | MIC (Escherichia coli) | MIC (Saccharomyces cerevisiae) | MIC (Rhizopus arrhizus) | MIC (Aspergillus niger) | Activity (Staphylococcus aureus) | MIC (Staphylococcus aureus) |
| --- | --- | --- | --- | --- | --- | --- | --- | --- | --- | --- | --- | --- |
| O=[N+]([O-])c1ccc2c(c1)nc(C(F)(F)F)n2CCCCCl | Dose-dependent effect | 750 µg/mL (≈ 2330 µM) | Dose-dependent effect | 800 µg/mL (≈ 2490 µM) | 500 µg/mL (≈ 1550 µM) | Dose-dependent effect | 600 µg/mL (≈ 1870 µM) | 800 µg/mL (≈ 2490 µM) | 500 µg/mL (≈ 1550 µM) | 450 µg/mL (≈ 1400 µM) | Dose-dependent effect | 800 µg/mL (≈ 2490 µM) |
| CCOC(=O)Cn1c(C(F)(F)F)nc2ccc([N+](=O)[O-])cc21 | Dose-dependent effect | 950 µg/mL (≈ 2990 µM) | Dose-dependent effect | 850 µg/mL (≈ 2680 µM) | 450 µg/mL (≈ 1420 µM) | Dose-dependent effect | 800 µg/mL (≈ 2520 µM) | 600 µg/mL (≈ 1890 µM) | 700 µg/mL (≈ 2210 µM) | 500 µg/mL (≈ 1580 µM) | Dose-dependent effect | 900 µg/mL (≈ 2840 µM) |
| O=[N+]([O-])c1ccc2c(c1)nc(C(F)(F)F)n2CCCCl | Dose-dependent effect | 350 µg/mL (≈ 1140 µM) | Dose-dependent effect | 400 µg/mL (≈ 1300 µM) | 300 µg/mL (≈ 975 µM) | Dose-dependent effect | 200 µg/mL (≈ 650 µM) | 400 µg/mL (≈ 1300 µM) | 200 µg/mL (≈ 650 µM) | 300 µg/mL (≈ 975 µM) | Dose-dependent effect | 300 µg/mL (≈ 975 µM) |
| CCOC(=O)Cn1c(C(F)(F)C(F)(F)F)nc2ccc([N+](=O)[O-])cc21 | Dose-dependent effect |  | Dose-dependent effect |  | 900 µg/mL (≈ 2450 µM) | Dose-dependent effect |  | 900 µg/mL (≈ 2450 µM) |  | 800 µg/mL (≈ 2180 µM) | Dose-dependent effect | 800 µg/mL (≈ 2180 µM) |
| CCOC(=O)Cn1c(C(F)(F)C(F)(F)F)nc2ccc(C(=O)c3ccccc3)cc21 | Dose-dependent effect | 850 µg/mL (≈ 1990 µM) | Dose-dependent effect | 900 µg/mL (≈ 2110 µM) | 700 µg/mL (≈ 1640 µM) | Dose-dependent effect | 600 µg/mL (≈ 1410 µM) | 700 µg/mL (≈ 1640 µM) | 850 µg/mL (≈ 1990 µM) | 900 µg/mL (≈ 2110 µM) | Dose-dependent effect | 900 µg/mL (≈ 2110 µM) |
| C#CCn1c(C(F)(F)F)nc2ccc([N+](=O)[O-])cc21 |  |  |  |  | 600 µg/mL (≈ 2230 µM) |  |  | 700 µg/mL (≈ 2600 µM) | 700 µg/mL (≈ 2600 µM) | 650 µg/mL (≈ 2410 µM) |  |  |
| O=[N+]([O-])c1ccc2nc(C(F)(F)F)n(CCCCl)c2c1 | Dose-dependent effect | 300 µg/mL (≈ 975 µM) | Dose-dependent effect | 450 µg/mL (≈ 1460 µM) | 400 µg/mL (≈ 1300 µM) | Dose-dependent effect | 400 µg/mL (≈ 1300 µM) | 500 µg/mL (≈ 1630 µM) | 300 µg/mL (≈ 975 µM) | 350 µg/mL (≈ 1140 µM) | Dose-dependent effect | 350 µg/mL (≈ 1140 µM) |
| CCOC(=O)Cn1c(C(F)(F)C(F)(F)F)nc2cc([N+](=O)[O-])ccc21 | Dose-dependent effect |  | Dose-dependent effect | 800 µg/mL (≈ 2180 µM) | 800 µg/mL (≈ 2180 µM) | Dose-dependent effect | 900 µg/mL (≈ 2450 µM) | 900 µg/mL (≈ 2450 µM) | 950 µg/mL (≈ 2590 µM) | 850 µg/mL (≈ 2310 µM) | Dose-dependent effect |  |
| O=[N+]([O-])c1ccc2nc(C(F)(F)C(F)(F)F)n(CCCCCl)c2c1 |  |  |  |  | 800 µg/mL (≈ 2150 µM) |  |  | 750 µg/mL (≈ 2020 µM) | 800 µg/mL (≈ 2150 µM) | 700 µg/mL (≈ 1880 µM) |  |  |
| CCOC(=O)Cn1c(C(F)(F)C(F)(F)F)nc2cc(C(=O)c3ccccc3)ccc21 | Dose-dependent effect | 900 µg/mL (≈ 2110 µM) | Dose-dependent effect | 700 µg/mL (≈ 1640 µM) | 700 µg/mL (≈ 1640 µM) | Dose-dependent effect | 650 µg/mL (≈ 1520 µM) | 800 µg/mL (≈ 1880 µM) | 800 µg/mL (≈ 1880 µM) | 1000 µg/mL (≈ 2350 µM) | Dose-dependent effect | 700 µg/mL (≈ 1640 µM) |
| C#CCn1c(C(F)(F)F)nc2cc([N+](=O)[O-])ccc21 |  |  |  |  | 700 µg/mL (≈ 2600 µM) |  |  | 750 µg/mL (≈ 2790 µM) | 700 µg/mL (≈ 2600 µM) | 600 µg/mL (≈ 2230 µM) |  |  |
| N#CCn1c(C(F)(F)F)nc2ccc([N+](=O)[O-])cc21 |  |  |  |  |  |  |  | 900 µg/mL (≈ 3330 µM) | 800 µg/mL (≈ 2960 µM) |  |  |  |
| O=[N+]([O-])c1ccc2c(c1)nc(C(F)(F)C(F)(F)F)n2CCCCCl |  |  |  |  | 700 µg/mL (≈ 1880 µM) |  |  | 750 µg/mL (≈ 2020 µM) | 700 µg/mL (≈ 1880 µM) | 650 µg/mL (≈ 1750 µM) |  |  |
| CCOC(=O)Cn1c(C(F)(F)F)nc2ccc(C(=O)c3ccccc3)cc21 |  |  |  |  | 400 µg/mL (≈ 1060 µM) |  |  | 500 µg/mL (≈ 1330 µM) | 400 µg/mL (≈ 1060 µM) | 700 µg/mL (≈ 1860 µM) |  |  |
| CCn1c(C(F)(F)F)nc2ccc([N+](=O)[O-])cc21 |  |  |  |  | 900 µg/mL (≈ 3470 µM) |  |  | 800 µg/mL (≈ 3090 µM) | 850 µg/mL (≈ 3280 µM) | 800 µg/mL (≈ 3090 µM) |  |  |
| CCOC(=O)Cn1c(C(F)(F)F)nc2cc([N+](=O)[O-])ccc21 | Dose-dependent effect | 800 µg/mL (≈ 2520 µM) | Dose-dependent effect | 900 µg/mL (≈ 2840 µM) | 400 µg/mL (≈ 1260 µM) | Dose-dependent effect | 700 µg/mL (≈ 2210 µM) | 600 µg/mL (≈ 1890 µM) | 600 µg/mL (≈ 1890 µM) | 550 µg/mL (≈ 1730 µM) | Dose-dependent effect | 800 µg/mL (≈ 2520 µM) |
| CCn1c(C(F)(F)F)nc2cc([N+](=O)[O-])ccc21 |  |  |  |  | 700 µg/mL (≈ 2700 µM) |  |  | 850 µg/mL (≈ 3280 µM) | 700 µg/mL (≈ 2700 µM) | 750 µg/mL (≈ 2890 µM) |  |  |
| CCOC(=O)Cn1c(C(F)(F)F)nc2cc(C(=O)c3ccccc3)ccc21 |  |  |  |  | 500 µg/mL (≈ 1330 µM) |  |  | 600 µg/mL (≈ 1590 µM) | 450 µg/mL (≈ 1200 µM) | 800 µg/mL (≈ 2130 µM) |  |  |
| O=[N+]([O-])c1ccc2nc(C(F)(F)F)n(CCCCCl)c2c1 | Dose-dependent effect | 700 µg/mL (≈ 2180 µM) | Dose-dependent effect |  | 600 µg/mL (≈ 1870 µM) | Dose-dependent effect |  | 700 µg/mL (≈ 2180 µM) | 400 µg/mL (≈ 1240 µM) | 650 µg/mL (≈ 2020 µM) | Dose-dependent effect | 800 µg/mL (≈ 2490 µM) |
